Results taken from paper PMC6738096 (British Journal of Cancer, 2019).
“Also recorded” adds a separate entry of the source.

Experiment: Phase 1 dose-escalation trial: safety and tolerability (TEAEs, SAEs, DLT, MTD, RP2D)
Settings: for Patients with any AE leading to death: none deemed related to treatment
[1] = safety population, regardless of causality

Description: Endpoints included the incidence of DLTs (defined in the ‘Safety' section) in the first 28-day treatment cycle (cycle 1), the frequency and severity of adverse events (AEs) and serious AEs (SAEs) and changes in laboratory values, vital signs, physical examination findings and Eastern Cooperative Oncology Group (ECOG) performance status (PS).
The starting dose was 30 mg, which was determined by review of nonclinical toxicokinetic assessments. A treatment cycle comprised 28 days in the absence of disease progression or unacceptable toxicity. Patients received starting doses ranging from 30 mg once every 24 hours (Q24h) to 480 mg Q24h, and escalation proceeded based on a 3 + 3 design.
The subsequent cohort started at a reduced dosing regimen. Additional dosing schedules were once every 12 hours (Q12h) at 30 and 60 mg and once every 8 hours (Q8h) at 20 and 40 mg.
Toxicities were graded and recorded according to NCI CTCAE version 4.03. Patients were assessed for DLTs during the first 28-day cycle. A DLT was defined as any grade ≥ 3 nonhaematologic toxicity, according to NCI CTCAE version 4.03.

CC(C)NC(=O)[C@H]1CC[C@@H](n2c(NC(=O)c3ccc(F)cc3)nc3ccc(CN4CCC(C(C)(C)O)CC4)cc32)CC1 [TSR-011]
SAE: Bone pain (40 mg Q8h (n = 31)): 0 n (%) | SAE: Deep-vein thrombosis (40 mg Q8h (n = 31)): 0 n (%) | SAE: Dehydration (40 mg Q8h (n = 31)): 0 n (%) | SAE: Disease progression (40 mg Q8h (n = 31)): 2 (6.5) n (%) | SAE: Dyspnoea (40 mg Q8h (n = 31)): 0 n (%) | SAE: Gastric haemorrhage (40 mg Q8h (n = 31)): 0 n (%) | SAE: Gastric ulcer helicobacter (40 mg Q8h (n = 31)): 1 (3.2) n (%) | SAE: Infection (40 mg Q8h (n = 31)): 1 (3.2) n (%) | SAE: Lower respiratory tract infection (40 mg Q8h (n = 31)): 1 (3.2) n (%) | SAE: Mastoiditis (40 mg Q8h (n = 31)): 0 n (%) | SAE: Mental impairment (40 mg Q8h (n = 31)): 0 n (%) | SAE: Metastases to the central nervous system (40 mg Q8h (n = 31)): 1 (3.2) n (%) | SAE: Pericardial effusion (40 mg Q8h (n = 31)): 1 (3.2) n (%) | SAE: Pleural effusion (40 mg Q8h (n = 31)): 1 (3.2) n (%) | SAE: Pneumonia (40 mg Q8h (n = 31)): 1 (3.2) n (%) | SAE: Portal vein thrombosis (40 mg Q8h (n = 31)): 0 n (%) | SAE: Seizure (40 mg Q8h (n = 31)): 1 (3.2) n (%) | SAE: Subarachnoid haemorrhage (40 mg Q8h (n = 31)): 1 (3.2) n (%) | Total number of TEAEs (40 mg Q8h (n = 31)): 167 | Total number of treatment-emergent SAEs (40 mg Q8h (n = 31)): 16 | Patients with any AE leading to death (40 mg Q8h (n = 31)): 2 (6.5) Number (%) | Grade ≥ 3 pneumonitis or hypoxia (40 mg TID): no grade ≥ 3 pneumonitis or hypoxia was observed | Grade 3 ECG QTc prolongation within the DLT period (320 mg Q24h cohort, an additional patient determined retrospectively): One patient | DLTs (30-, 60-, 120- and 240-mg IR Q24h cohorts): none of the patients experienced DLTs | Maximum tolerated dose (MTD) (320- and 480-mg Q24h doses): exceeded the maximum tolerated dose; also recorded: exceeded the MTD | Grade 3 QTc prolongation (480-mg Q24h cohort): two of four patients | Drug-related TEAE: Abnormal dreams (All patients (N = 72)): 2 (2.8) n (%) | Drug-related TEAE: Anaemia (All patients (N = 72)): 2 (2.8) n (%) | Drug-related TEAE: Asthenia (All patients (N = 72)): 2 (2.8) n (%) | Drug-related TEAE: Constipation (All patients (N = 72)): 5 (6.9) n (%) | Drug-related TEAE: Decreased appetite (All patients (N = 72)): 4 (5.6) n (%) | Drug-related TEAE: Diarrhoea (All patients (N = 72)): 3 (4.2) n (%) | Drug-related TEAE: Dysaesthesia (All patients (N = 72)): 2 (2.8) n (%) | Drug-related TEAE: Dysgeusia (All patients (N = 72)): 3 (4.2) n (%) | Drug-related TEAE: Electrocardiogram QTc prolonged (All patients (N = 72)): 12 (16.7) n (%) | Drug-related TEAE: Fatigue (All patients (N = 72)): 4 (5.6) n (%) | Drug-related TEAE: Headache (All patients (N = 72)): 3 (4.2) n (%) | Drug-related TEAE: Hot flush (All patients (N = 72)): 2 (2.8) n (%) | Drug-related TEAE: Increased transaminases (All patients (N = 72)): 2 (2.8) n (%) | Drug-related TEAE: Insomnia (All patients (N = 72)): 2 (2.8) n (%) | Drug-related TEAE: Myalgia (All patients (N = 72)): 2 (2.8) n (%) | Drug-related TEAE: Nausea (All patients (N = 72)): 3 (4.2) n (%) | Drug-related TEAE: Peripheral oedema (All patients (N = 72)): 3 (4.2) n (%) | Drug-related TEAE: Rash (All patients (N = 72)): 2 (2.8) n (%) | Drug-related TEAE: Vomiting (All patients (N = 72)): 4 (5.6) n (%) | Grade 3 TEAE: Anaemia (All patients (N = 72)): 5 (6.9) n (%) | Grade 3 TEAE: Ascites (All patients (N = 72)): 2 (2.8) n (%) | Grade 3 TEAE: Asthenia (All patients (N = 72)): 3 (4.2) n (%) | Grade 3 TEAE: Dyspnoea (All patients (N = 72)): 3 (4.2) n (%) | Grade 3 TEAE: Electrocardiogram QTc prolonged (All patients (N = 72)): 4 (5.6) n (%) | Grade 3 TEAE: Fatigue (All patients (N = 72)): 2 (2.8) n (%) | Grade 3 TEAE: Metastases to the central nervous system (All patients (N = 72)): 2 (2.8) n (%) | Patients with any TEAE (All patients (N = 72)): 70 (97.2) Number (%) | Patients with any TEAE leading to treatment discontinuation (All patients (N = 72)): 11 (15.3) Number (%) | Patients with any serious TEAE (All patients (N = 72)): 28 (38.9) Number (%) | Patients with any study drug-related TEAE (All patients (N = 72)): 40 (55.6) Number (%) | Patients with ≥ 1 treatment-emergent SAE (All patients (N = 72)): 28 (38.9) n (%) | SAE class: Blood and lymphatic system disorders (All patients (N = 72)): 2 (2.8) n (%) | SAE class: Cardiac disorders (All patients (N = 72)): 1 (1.4) n (%) | SAE class: Gastrointestinal disorders (All patients (N = 72)): 5 (6.9) n (%) | SAE class: General disorders and administration-site conditions (All patients (N = 72)): 7 (9.7) n (%) | SAE class: Hepatobiliary disorders (All patients (N = 72)): 1 (1.4) n (%) | SAE class: Infections and infestations (All patients (N = 72)): 5 (6.9) n (%) | SAE class: Metabolism and nutrition disorders (All patients (N = 72)): 1 (1.4) n (%) | SAE class: Musculoskeletal and connective tissue disorders (All patients (N = 72)): 1 (1.4) n (%) | SAE class: Neoplasms benign, malignant and unspecified (including cysts and polyps) (All patients (N = 72)): 3 (4.2) n (%) | SAE class: Nervous system disorders (All patients (N = 72)): 8 (11.1) n (%) | SAE class: Respiratory, thoracic and mediastinal disorders (All patients (N = 72)): 4 (5.6) n (%) | SAE class: Vascular disorders (All patients (N = 72)): 1 (1.4) n (%) | SAE: Abdominal pain (All patients (N = 72)): 1 (1.4) n (%) | SAE: Anaemia (All patients (N = 72)): 2 (2.8) n (%) | SAE: Asthenia (All patients (N = 72)): 1 (1.4) n (%) | SAE: Basal cell carcinoma (All patients (N = 72)): 1 (1.4) n (%) | SAE: Bone pain (All patients (N = 72)): 1 (1.4) n (%) | SAE: Deep-vein thrombosis (All patients (N = 72)): 1 (1.4) n (%) | SAE: Dehydration (All patients (N = 72)): 1 (1.4) n (%) | SAE: Disease progression (All patients (N = 72)): 6 (8.3) n (%) | SAE: Dyspnoea (All patients (N = 72)): 3 (4.2) n (%) | SAE: Gastric haemorrhage (All patients (N = 72)): 1 (1.4) n (%) | SAE: Gastric ulcer helicobacter (All patients (N = 72)): 1 (1.4) n (%) | SAE: Infection (All patients (N = 72)): 1 (1.4) n (%) | SAE: Lower respiratory tract infection (All patients (N = 72)): 1 (1.4) n (%) | SAE: Mastoiditis (All patients (N = 72)): 1 (1.4) n (%) | SAE: Mental impairment (All patients (N = 72)): 2 (2.8) n (%) | SAE: Metastases to the central nervous system (All patients (N = 72)): 2 (2.8) n (%) | SAE: Pericardial effusion (All patients (N = 72)): 1 (1.4) n (%) | SAE: Pleural effusion (All patients (N = 72)): 1 (1.4) n (%) | SAE: Pneumonia (All patients (N = 72)): 1 (1.4) n (%) | SAE: Portal vein thrombosis (All patients (N = 72)): 1 (1.4) n (%) | SAE: Seizure (All patients (N = 72)): 2 (2.8) n (%) | SAE: Subarachnoid haemorrhage (All patients (N = 72)): 1 (1.4) n (%) | Total number of TEAEs (All patients (N = 72)): 621 | Total number of treatment-emergent SAEs (All patients (N = 72)): 49 | Patients with any AE leading to death (All patients (N = 72)): 6 (8.3) Number (%) | Most common grade 3–4 TEAEs, patients (RP2D 40 mg Q8h): 3.2–6.5% | Recommended phase 2 dose (RP2D) (every 8 hours (Q8h, TID), IR): 40 mg | Grade 3 TEAEs, patients (safety population): 51.4% | Grade 4 TEAE of anaemia (safety population): One patient | SAE disease progression, patients (safety population): 8.3% | Study drug-related SAE, patients (safety population): 1.4% | Study drug-related TEAEs, patients (safety population): 55.6% | TEAEs leading to study drug discontinuation, patients (safety population): 15.3% | TEAEs of grade 1 severity (safety population): 64 % of events | Treatment-emergent SAEs, patients (safety population): 38.9% | Patients with ≥ 1 TEAE (safety population (N = 72)): 97.2% | TEAE QTc prolongation, patients [1]: 18.1% | TEAE anaemia, patients [1]: 15.3% | TEAE asthenia, patients [1]: 15.3% | TEAE class gastrointestinal disorders, patients [1]: 61.1% | TEAE class general disorders and administration-site conditions, patients [1]: 50.0% | TEAE constipation, patients [1]: 19.4% | TEAE decreased appetite, patients [1]: 15.3% | TEAE diarrhoea, patients [1]: 18.1% | TEAE fatigue, patients [1]: 19.4% | TEAE headache, patients [1]: 15.3% | TEAE vomiting, patients [1]: 18.1%
